Each structure is given as a SMILES string.

Drawing on patent US10550105B2 (Ribon Therapeutics Inc., priority 2018, dated 2020), this text covers IC50 for 20 compounds.

Sequence of PARP7 (Q7Z3E1 whole entry): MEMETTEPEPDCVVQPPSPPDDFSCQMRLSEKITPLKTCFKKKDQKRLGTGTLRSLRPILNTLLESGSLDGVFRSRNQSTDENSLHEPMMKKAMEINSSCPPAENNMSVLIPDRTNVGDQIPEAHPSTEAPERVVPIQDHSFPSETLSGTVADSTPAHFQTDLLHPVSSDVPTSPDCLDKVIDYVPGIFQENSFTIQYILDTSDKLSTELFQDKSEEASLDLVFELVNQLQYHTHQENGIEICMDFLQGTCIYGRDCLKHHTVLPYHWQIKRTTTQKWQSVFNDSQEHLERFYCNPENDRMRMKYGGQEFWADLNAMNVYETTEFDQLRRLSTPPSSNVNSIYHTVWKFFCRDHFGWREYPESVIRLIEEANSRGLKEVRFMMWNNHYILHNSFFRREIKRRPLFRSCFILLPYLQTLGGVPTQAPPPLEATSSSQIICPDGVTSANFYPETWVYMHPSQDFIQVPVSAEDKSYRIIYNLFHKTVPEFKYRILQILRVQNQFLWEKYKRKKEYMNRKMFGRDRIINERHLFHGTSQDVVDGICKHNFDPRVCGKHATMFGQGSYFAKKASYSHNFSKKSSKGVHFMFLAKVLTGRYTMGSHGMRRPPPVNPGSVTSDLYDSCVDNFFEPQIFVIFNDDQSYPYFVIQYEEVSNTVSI

The test has as its target PARP7 (Homo sapiens (Human), UniProt Q7Z3E1). Put plainly: Enzymatic assay for inhibition of PARP7: TR-FRET displacement of biotinylated Probe A from the TIPARP active site. In kind it is binding. The conditions noted are these: Table A-1. The procedure, abridged:
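Percent inhibition derives from the ratio of 665 to 615 nm emission, which reports how much Probe A remains bound to TIPARP. Plates sat 30 min at 25° C before the time-resolved read (320 nm excitation).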
`N#Cc1ccc(N2CCN(C(=O)c3cccc(OC[C@@H]4C[C@@H](O)CN4c4cn[nH]c(=O)c4C(F)(F)F)c3)CC2)nc1` [Example 52]: the half-inhibitory concentration (IC50) (as a rule, the midpoint of a concentration-inhibition curve) is < 100 nM.

As to `O=c1[nH]ncc(N2Cc3cc(F)c(OC4CCNC4)cc3C2)c1C(F)(F)F` (centres unmarked) [Example 53, 5-(5-fluoro-6-(pyrrolidin-3-yloxy)isoindolin-2-yl)-4-(trifluoromethyl)pyridazin-3(2H)-one], the IC50 is < 100 nM.

For `CC(=O)N1CCC(Oc2cc3c(cc2F)CN(c2cn[nH]c(=O)c2C(F)(F)F)C3)C1` (centres unmarked) [Example 54, 5-(5-(1-acetylpyrrolidin-3-yloxy)-6-fluoroisoindolin-2-yl)-4-(trifluoromethyl)pyridazin-3(2H)-one], the IC50 was < 100 nM.

Consider `CN1CCC(Oc2cc3c(cc2F)CN(c2cn[nH]c(=O)c2C(F)(F)F)C3)C1` (centres unmarked) [Example 55, 5-[5-fluoro-6-[(1-methylpyrrolidin-3-yl)oxy]-2,3-dihydro-1H-isoindol-2-yl]-4-(trifluoromethyl)-2,3-dihydropyridazin-3-one], for which the IC50 is < 100 nM.

Turning to `O=c1[nH]ncc(N2Cc3cc(F)c(OC4CCCNC4)cc3C2)c1C(F)(F)F` (centres unmarked) [Example 58, 5-[5-fluoro-6-(piperidin-3-yloxy)-2,3-dihydro-1H-isoindol-2-yl]-4-(trifluoromethyl)-2,3-dihydropyridazin-3-one], the half-maximal inhibitory concentration (IC50) was < 100 nM.

Turning to `O=c1[nH]ncc(N2Cc3ccc(F)cc3C2)c1Cl` [Example 59, 4-Chloro-5-(5-fluoro-2,3-dihydro-1H-isoindol-2-yl)-2,3-dihydropyridazin-3-one], the IC50 is < 100 nM.

On to `O=c1[nH]ncc(N2Cc3cccc(F)c3C2)c1Cl` [Example 60, 4-Chloro-5-(4-fluoro-2,3-dihydro-1H-isoindol-2-yl)-2,3-dihydropyridazin-3-one], for which the IC50 lay in the range of 100 to 1000 nM.

Turning to `N#Cc1ccc(N2CCN(C(=O)c3cc(OCC4c5ccccc5CN4c4cn[nH]c(=O)c4C(F)(F)F)cnc3F)CC2)nc1` (centres unmarked) [Example 61, 6-(4-[[2-fluoro-5-([2-[6-oxo-5-(trifluoromethyl)-1,6-dihydropyridazin-4-yl]-2,3-dihydro-1H-isoindol-1-yl]methoxy)pyridin-3-yl]carbonyl]piperazin-1-yl)pyridine-3-carbonitrile], the IC50 was < 100 nM.

Regarding `N#Cc1cnc(N2CCN(C(=O)c3cc(OCC4c5ccccc5CN4c4cn[nH]c(=O)c4C(F)(F)F)cnc3F)CC2)nc1` (centres unmarked) [Example 62, 2-(4-[[2-fluoro-5-([2-[6-oxo-5-(trifluoromethyl)-1,6-dihydropyridazin-4-yl]-2,3-dihydro-1H-isoindol-1-yl]methoxy)pyridin-3-yl]carbonyl]piperazin-1-yl)pyrimidine-5-carbonitrile], the 50% inhibitory concentration (IC50) was < 100 nM.

`N#Cc1ccc(NCCC(=O)Nc2cncc(OCC3c4ccccc4CN3c3cn[nH]c(=O)c3C(F)(F)F)c2)nc1` (centres unmarked) [Example 63, 3-[(5-cyanopyridin-2-yl)amino]-N-[5-([2-[6-oxo-5-(trifluoromethyl)-1,6-dihydropyridazin-4-yl]-2,3-dihydro-1H-isoindol-1-yl]methoxy)pyridin-3-yl]propanamide]: the 50% inhibitory concentration (IC50) was < 100 nM.

Consider `N#Cc1cnc(N2CCN(C(=O)c3cncc(OC[C@@H]4CCCN4c4cn[nH]c(=O)c4C(F)(F)F)c3)CC2)nc1` [Example 65, 2-[4-[(5-[[(2S)-1-[6-oxo-5-(trifluoromethyl)-1,6-dihydropyridazin-4-yl]pyrrolidin-2-yl]methoxy]pyridin-3-yl)carbonyl]piperazin-1-yl]pyrimidine-5-carbonitrile], for which the IC50 was < 100 nM.

Regarding `N#Cc1ccc(N2CCN(C(=O)c3nccc(OC[C@@H]4CCCN4c4cn[nH]c(=O)c4C(F)(F)F)n3)CC2)nc1` [Example 66, 6-[4-[(4-[[(2S)-1-[6-oxo-5-(trifluoromethyl)-1,6-dihydropyridazin-4-yl]pyrrolidin-2-yl]methoxy]pyrimidin-2-yl)carbonyl]piperazin-1-yl]pyridine-3-carbonitrile], the half-inhibitory concentration (IC50) is < 100 nM.

Turning to `N#Cc1ccc(N2CCN(C(=O)c3cc(OC[C@@H]4CCCN4c4cn[nH]c(=O)c4C(F)(F)F)ccc3F)CC2)nc1` [Example 67, 6-[4-[(2-fluoro-5-[[(2S)-1-[6-oxo-5-(trifluoromethyl)-1,6-dihydropyridazin-4-yl]pyrrolidin-2-yl]methoxy]phenyl)carbonyl]piperazin-1-yl]pyridine-3-carbonitrile], the concentration for half-maximal inhibition (IC50) is < 100 nM.

As for `N#Cc1ccc(N2CCN(C(=O)c3ccnc(OC[C@@H]4CCCN4c4cn[nH]c(=O)c4C(F)(F)F)n3)CC2)nc1` [Example 68, 6-[4-[(2-[[(2S)-1-[6-oxo-5-(trifluoromethyl)-1,6-dihydropyridazin-4-yl]pyrrolidin-2-yl]methoxy]pyrimidin-4-yl)carbonyl]piperazin-1-yl]pyridine-3-carbonitrile], the IC50 was < 100 nM.

In the case of `N#Cc1ccc(N2CCN(C(=O)c3ccnc(OC[C@@H]4CCCN4c4cn[nH]c(=O)c4C(F)(F)F)c3)CC2)nc1` [Example 69, 6-[4-[(2-[[(2S)-1-[6-oxo-5-(trifluoromethyl)-1,6-dihydropyridazin-4-yl]pyrrolidin-2-yl]methoxy]pyridin-4-yl)carbonyl]piperazin-1-yl]pyridine-3-carbonitrile], the 50% inhibitory concentration (IC50) is < 100 nM.

In the case of `C[C@H]1C[C@@H](COc2cccc(C(=O)N3CCN(c4ccc(C#N)cn4)CC3)c2)N(c2cn[nH]c(=O)c2C(F)(F)F)C1` [Example 70, 6-[4-[(3-[[(2S,4S)-4-methyl-1-[6-oxo-5-(trifluoromethyl)-1,6-dihydropyridazin-4-yl]pyrrolidin-2-yl]methoxy]phenyl)carbonyl]piperazin-1-yl]pyridine-3-carbonitrile], the IC50 is < 100 nM.

In the case of `N#Cc1ccc(N2CCN(C(=O)c3cccc(OCC4COCCN4c4cn[nH]c(=O)c4C(F)(F)F)c3)CC2)nc1` (centres unmarked) [Example 71, 6-(4-[[3-([4-[6-oxo-5-(trifluoromethyl)-1,6-dihydropyridazin-4-yl]morpholin-3-yl]methoxy)phenyl]carbonyl]piperazin-1-yl)pyridine-3-carbonitrile], the half-inhibitory concentration (IC50) is 100 to 1000 nM.

Consider `N#Cc1ccc(N2CCN(C(=O)c3cc(OC[C@@H]4CCCN4c4cn[nH]c(=O)c4C(F)(F)F)ccn3)CC2)nc1` [Example 73, 6-[4-[(4-[[(2S)-1-[6-oxo-5-(trifluoromethyl)-1,6-dihydropyridazin-4-yl]pyrrolidin-2-yl]methoxy]pyridin-2-yl)carbonyl]piperazin-1-yl]pyridine-3-carbonitrile], for which the 50% inhibitory concentration (IC50) was < 100 nM.

As for `N#Cc1ccc(N2CCN(C(=O)c3cncc(OC[C@@H]4CCCN4c4cn[nH]c(=O)c4C(F)(F)F)n3)CC2)nc1` [Example 74, 6-[4-[(6-[[(2S)-1-[6-oxo-5-(trifluoromethyl)-1,6-dihydropyridazin-4-yl]pyrrolidin-2-yl]methoxy]pyrazin-2-yl)carbonyl]piperazin-1-yl]pyridine-3-carbonitrile], the IC50 is < 100 nM.

As for `C[C@@H]1C[C@@H](COc2cccc(C(=O)N3CCN(c4ccc(C#N)cn4)CC3)c2)N(c2cn[nH]c(=O)c2C(F)(F)F)C1` [Example 75, 6-[4-[(3-[[(2S,4R)-4-methyl-1-[6-oxo-5-(trifluoromethyl)-1,6-dihydropyridazin-4-yl]pyrrolidin-2-yl]methoxy]phenyl)carbonyl]piperazin-1-yl]pyridine-3-carbonitrile], the IC50 is < 100 nM.
